For one assay, the system named is SHSY-5Y cells. Briefly: Effects of alcohols on gene expression (array hybridization intensity) in SHSY-5Y cells, Study 1. The assay is classed as cell-based, human. The settings on record: for Co-Activ increase in hybridization / MAP4 increase in hybridization / Na/H Anti increase in hybridization / ZNFP increase in hybridization: 50 mM alcohol, early (2 hour) response, FIG. 2B; for DBH hybridization intensity over baseline / DLK hybridization intensity over baseline / GABA-β3 hybridization intensity over baseline / NPTX2 hybridization intensity over baseline / PDGFR hybridization intensity over baseline / PTK hybridization intensity over baseline: FIG. 2A. The source says: Hybridization strength is given a baseline of 1 and increased intensity is expressed in as a multiple of the baseline, i.e., 2-fold, 3-fold, 4-fold etc.
Column 1 lists the presumed functional class of the gene.
Columns are similar to Table 8.

Another assay deals with noradrenergic receptors. The settings on record: in vivo; cited from earlier work.
The test system of assay [1] is SH-SY5Y cells. Briefly: Effect of dexamethasone and db-cAMP on expression of DBH, NET, DLK and MCP-1. The assay is classed as cell-based, human. The settings on record: 1 mM; data not shown. The source says: Previous studies have shown that neuroblastoma cells derived from the neural crest could differentiate either towards a more neuronal phenotype in the presence of retinoic acid, or a chromaffin-like phenotype in the presence of glucocorticoids or dibutyryl-cyclic AMP (db-cAMP). […] Therefore, we tested the effect of dexamethasone and db-cAMP on the expression of our 4 candidate genes.

Assay [2] has as its system SH-SY5Y cells. The source says:
RNA blots were probed with ^32P-labeled inserts of human DBH, NET, DLK and MCP-1 cDNAs. Probes were synthesized by RT-PCR using SH-SY5Y total RNA as template. […] Human GAPDH cDNA probe (Clonetech) was used as an internal control for total RNA normalization.

For assay [3] the following is noted: ethanol administration; cited from earlier work.
Assay [4] deals with human neuroblastoma SH-SY5Y cells. Briefly: Oligonucleotide array (Affymetrix GeneChip Hu6800) gene expression profile after ethanol. The settings on record: 72 h.
Assay [5] deals with SH-SY5Y cells. The settings on record: 150 mM ethanol, 3 days, media from last 24 h, n=3; control 0.957+/−0.49.
Description: All HPLC apparatus was from ESA, Inc. (Chelmsford, Mass.). Following precipitation with 0.1 M perchloric acid and centrifugation over a 5000 MW cut-off centrifugal filter, culture media (10 μl aliquot) was injected onto an ESA HR-80 column (C-18, 4.6 mm×8 cm, 3 um particle size) using a Model 540 refrigerated autosampler injector and a Model 580 solvent delivery pump. […] Eluents were detected at a flow rate of 1.0 ml/min using a Model 5011 analytical cell with palladium reference electrode, a Model 5020 guard cell, and a Model 5200A Coulochem II electrochemical detector. Electrode settings were +350 mV for the guard cell, −100 mV for the pre-oxidation electrode, and +280 mV for the detection electrode. Samples were analyzed at 5 nA sensitivity and compared with a two-point monoamine standard calibration curve at 1 and 5 pg/μl using the Model 501 analysis software package.
For assay [6], the system named is MCP-1 release from SH-SY5Y cells. The conditions noted are these: ethanol-treated cells; FIG. 4C. As to the method:
(§1) The relative amount of DBH protein between whole cell homogenates of control and ethanol-treated cells was determined by Western blot analysis following standard protocols using a polyclonal antibody (Calbiochem). MCP-1 production was monitored in the culture media of cells treated in the absence or presence of ethanol using the Quantikine MCP-1 immunoassay from R&D System.

Assay [7] has as its system DBH protein in SH-SY5Y cells. As to the method:
as §1

For assay [8], the system named is DBH mRNA in adrenal glands and brain. The settings on record: versus saline.
Description: Animal studies were conducted on female DBA/2 mice (Simonsen Laboratories, Gilroy, Calif.) weighing 20-30 g at 8 weeks of age. All animals were housed individually under a 12:12 light-dark cycle at 22° C. and given ad libitum access to food and water before and after injection procedures. […] Adrenal glands were dissected out, immediately frozen into liquid nitrogen and stored at −80° C. until needed.
Aliquot of ss cDNA were then used in comparative PCR. […] We performed duplex reaction using GAPDH as an endogenous amplification standard. PCR conditions were optimized so that the amplification of both, GAPDH and DBH cDNAs were in the exponential phase.
The mark [9] stands for this setting: 50, 100, 150 mM ethanol, FIG. 3B.

Like-named read-outs stand apart in the source and are kept apart here.

Take `CO` [methanol, reference compound]: in the assay with SHSY-5Y cells, the “Co-Activ increase in hybridization” value is reported as 1.5 fold, the “MAP4 increase in hybridization” value is greater than 2 fold, the “Na/H Anti increase in hybridization” value worked out at 1.5 fold and the “ZNFP increase in hybridization” value came to 1.5 fold.

In the case of `Clc1cccc(Cl)c1N=C1NCCN1` [clonidine], the ethanol withdrawal syndrome result in the assay with noradrenergic receptors is given as “strongly reduce ethanol withdrawal syndrome”.

Consider `CCCO` [propanol, reference compound], for which, in the assay with SHSY-5Y cells, the “Co-Activ increase in hybridization” value is greater than 6.5 fold, the “MAP4 increase in hybridization” value came out at 4 fold, the “Na/H Anti increase in hybridization” value is given as 6.5 fold and the “ZNFP increase in hybridization” value is recorded as greater than 6 fold.

Take `CCCC(=O)Nc1ncnc2c1ncn2[C@@H]1O[C@@H]2COP(=O)(O)O[C@H]2[C@H]1OC(=O)CCC` [db-cAMP, dibutyryl-cyclic AMP]: the “time after treatment at which effects were significant” value in the assay on SH-SY5Y cells [1] is listed as no more than 24 h.

For `CCO` [ethanol], in the assay on SH-SY5Y cells [2] (3 days treatment, FIG. 4A), the “DBH, DLK and NET mRNA levels” value is on record as “increase”; the MCP-1 transcript levels result is on record as “decrease”. Besides, in the assay on SH-SY5Y cells [2] (DBH, DLK, NET, MCP-1, data not shown), the “time after addition at which changes in expression were detected” value is no more than 24 h. In [3], the plasma norepinephrine levels entry was “dose-dependent elevation”. Besides, in assay [4] (100 mM ethanol), the “E100, change in expression of ARHGDIB (L20688)” value is listed as −0.7; the “E100, change in expression of CPE (X51405)” value is recorded as 1.2; the “E100, change in expression of DBH (X13255)” value stood at 5.4; the “E100, change in expression of DLK1 (T49117)” value turned out to be 2.9. For the same compound, in assay [4] (100 mM ethanol), the “E100, change in expression of DUSP4 (U21108)” value was determined as 0.9; the “E100, change in expression of E2-28.4 (EST) (R01227)” value is 1; the “E100, change in expression of EGFR (H02836)” value is 1; the “E100, change in expression of EST H08637 (NF1)” value came to 0.9. In [4] (100 mM ethanol), the “E100, change in expression of EST R47985 (Acrosin)” value was −1.3; the “E100, change in expression of EST R60751 (IEP2)” value was −0.8; the “E100, change in expression of EST R73461 (TCRbeta)” value is on record as −3.7; the “E100, change in expression of EST T94087 (JNK2)” value is on record as 1. Moreover, in assay [4] (100 mM ethanol), the “E100, change in expression of FKHL1 (R60332)” value was −0.9; the “E100, change in expression of GCH1 (U19523)” value was 1.6; the “E100, change in expression of GLRX (X76648)” value was found to be 1.4; the “E100, change in expression of GPI-H (L19783)” value is on record as −0.6. In addition, in assay [4] (100 mM ethanol), the “E100, change in expression of GSTM4 (M99422)” value is 0.9; the “E100, change in expression of HIRH (H14506)” value is given as −1; the “E100, change in expression of IL7 (J04156)” value is listed as −0.7; the “E100, change in expression of KRT18 (T53412)” value is on record as −2.3. In assay [4] (100 mM ethanol), the “E100, change in expression of LUM (U21128)” value was found to be 1.6; the “E100, change in expression of MCP1 (M26683)” value is −1.9; the “E100, change in expression of MGP (H52207)” value is reported as −0.7; the “E100, change in expression of NAIP (U19251)” value is recorded as 0.9. Besides, in assay [4] (100 mM ethanol), the “E100, change in expression of NEF3 (Y00067)” value came out at 1.4; the “E100, change in expression of NFIB2/3 (H91713)” value worked out at 2.1; the “E100, change in expression of NP (T47964)” value amounted to 0.5; the “E100, change in expression of NPTX2 (U29195)” value stood at 0.9. Moreover, in [4] (100 mM ethanol), the “E100, change in expression of NSMAF (R41765)” value turned out to be 1.1; the “E100, change in expression of PGY1 (M29447)” value is listed as 2.3; the “E100, change in expression of PMSCL2 (R40490)” value worked out at 0.7; the “E100, change in expression of PRHX (X67235)” value came to 1. Also, in assay [4] (100 mM ethanol), the “E100, change in expression of RAC2 (H42477)” value is reported as −0.9; the “E100, change in expression of RPL14 (R82938)” value is reported as −0.5; the “E100, change in expression of SLC6A2(NET) (M65105)” value was 2.6; the “E100, change in expression of SOX9 (Z46629)” value was −1.2. Also, in assay [4] (100 mM ethanol), the “E100, change in expression of SPARC (T54767)” value is −1.3; the “E100, change in expression of SSH3BP1 (R34245)” value came to 0.7; the “E100, change in expression of TMPO (U09086)” value is given as 1; the “E100, change in expression of TP53 (X54156)” value is −1.1. The “E100, change in expression of ZNF42 (R83364)” value in [4] (100 mM ethanol) is −1.9. Further, in assay [4] (setting [9]), the “DBH mRNA levels, dose dependence” value is reported as “changed in a dose-dependent manner”; the “DLK, NET and MCP-1 gene expression, dose dependence” value is “showed a dose-response”. Also, the “expression of gene encoding α7 subunit of the neuronal acetylcholine receptor (nAChRα7)” value in assay [4] (100 mM ethanol, FIG. 3A) was “downregulated”. The “NE levels in the media” value in the assay on SH-SY5Y cells [5] is 23.554+/−5.218 ng/mg of protein. The “MCP-1 peptide release in the culture media” value in assay [6] is “decrease in peptide release”. In [7] (150 mM ethanol for 72 h, FIG. 4B), the DBH protein expression result was “enhancement in DBH protein expression”. Moreover, the “duration of increase in DBH protein levels” value in assay [7] (continued presence of ethanol, data not shown) was “sustained up to 7 days treatment”. In addition, in the assay with SHSY-5Y cells, the “Co-Activ increase in hybridization” value is given as 4 fold, the “MAP4 increase in hybridization” value was determined as 3 fold, the “Na/H Anti increase in hybridization” value is on record as roughly 6 fold and the “ZNFP increase in hybridization” value came to 7.5 fold. For the same compound, the “DBH hybridization intensity over baseline” value in the assay on SHSY-5Y cells (50 mM ethanol) was 3 fold. Further, in the assay with SHSY-5Y cells (50 mM ethanol, baseline = 1), the “DLK hybridization intensity over baseline” value is listed as “just over the baseline”, the “GABA-β3 hybridization intensity over baseline” value is “just over the baseline”, the “NPTX2 hybridization intensity over baseline” value was “just over the baseline” and the “PDGFR hybridization intensity over baseline” value is “just over the baseline”. The “PTK hybridization intensity over baseline” value in the assay on SHSY-5Y cells (50 mM ethanol, baseline = 1) was “just over the baseline”. For the same compound, in the assay with SHSY-5Y cells (100 mM ethanol), the “DBH hybridization intensity over baseline” value is 5 fold, the “DLK hybridization intensity over baseline” value worked out at 3 fold, the “GABA-β3 hybridization intensity over baseline” value was “around 2 fold” and the “NPTX2 hybridization intensity over baseline” value was “around 2 fold”. In the assay on SHSY-5Y cells (100 mM ethanol), the “PDGFR hybridization intensity over baseline” value is 3 fold and the “PTK hybridization intensity over baseline” value was found to be 3 fold. Besides, in the assay with SHSY-5Y cells (150 mM ethanol), the “DBH hybridization intensity over baseline” value is on record as roughly 9 fold, the “DLK hybridization intensity over baseline” value is listed as roughly 7 fold, the “GABA-β3 hybridization intensity over baseline” value is on record as 2 fold and the “NPTX2 hybridization intensity over baseline” value is on record as 2 fold. In the assay on SHSY-5Y cells (150 mM ethanol), the “PDGFR hybridization intensity over baseline” value is 5 fold and the “PTK hybridization intensity over baseline” value stood at 2 fold. Further, the “DBH mRNA levels in the brain” value in assay [8] (6 or 24 h after single dose 4 g/kg i.p., data not shown) is “No difference in expression”. In addition, the “DBH mRNA levels in the adrenal” value in [8] (6 h after single dose 4 g/kg i.p., data not shown) was “No difference in expression”. The “DBH mRNA levels in the adrenal” value in assay [8] (24 h after single dose 4 g/kg i.p., FIG. 5) is “significant increase”.

Source of the values: US20060024658A1, “Composition and methods for evaluating an organism's response to alcohol or stimulants” (priority 1998, published 2006).
